Reference: ChEMBL document CHEMBL1122817, “Synthesis and biological activity of substituted [[3(S)-(acylamino)-2-oxo-1-azetidinyl]oxy]acetic acids. A new class of heteroatom-activated beta-lactam antibiotics” (1985)

Tests used:
Bacillus subtilis [1] = assay: Inhibitory activity against Bacillus Subtilis X12 at 10 mg/mL concentration using Agar disk plate assay; assay type: functional
Proteus inconstans = assay: Minimum inhibitory concentration against Proteus inconstans PR33; assay type: functional; settings: Providencia alcalifaciens
[2] = tested on: Acinetobacter calcoaceticus; assay: Minimum inhibitory concentration against Acinetobacter calcoaceticus AC12; assay type: functional
Serratia marcescens [3] = assay: Inhibitory activity against Serratia marcescens X99 at 10 mg/mL concentration using Agar disk plate assay; assay type: functional
Escherichia coli [4] = assay: Inhibitory activity against Escherichia coli X161M at 10 mg/mL concentration using Agar disk plate assay; assay type: functional
Bacillus subtilis [5] = assay: Inhibitory activity against Bacillus Subtilis X12M at 10 mg/mL concentration using Agar disk plate assay; assay type: functional
Staphylococcus aureus [6] = assay: Inhibitory activity against Staphylococcus aureus X1 at 10 mg/mL concentration using Agar disk plate assay; assay type: functional
Escherichia coli [7] = assay: Minimum inhibitory concentration against Escherichia coli TEM; assay type: functional
Klebsiella pneumoniae [8] = assay: Minimum inhibitory concentration against Klebsiella pneumoniae X68; assay type: functional
Klebsiella aerogenes [9] = assay: Minimum inhibitory concentration against Enterobacter aerogenes EB 17; assay type: functional
Citrobacter freundii = assay: Minimum inhibitory concentration against Citrobacter freundii CF17; assay type: functional
Serratia marcescens [10] = assay: Minimum inhibitory concentration against Serratia marcescens X99; assay type: functional
Escherichia coli [11] = assay: Inhibitory activity against Escherichia coli X161 at 10 mg/mL concentration using Agar disk plate assay; assay type: functional
Escherichia coli [12] = assay: Minimum inhibitory concentration against Escherichia coli EC14; assay type: functional
Enterobacter cloacae [13] = assay: Minimum inhibitory concentration against Enterobacter cloacae 265A; assay type: functional
Serratia marcescens [14] = assay: Minimum inhibitory concentration against Serratia marcescens SE3; assay type: functional
Pseudomonas aeruginosa [15] = assay: Inhibitory activity against Pseudomonas aeruginosa X48 at 10 mg/mL concentration using Agar disk plate assay; assay type: functional
[16] = tested on: Geobacillus stearothermophilus; assay: Inhibitory activity against Bacillus Stearothermophilus C451 at 10 mg/mL concentration using Agar disk plate assay; assay type: functional
Ralstonia solanacearum = assay: Inhibitory activity against Pseudomonas solanacearum X185 at 10 mg/mL concentration using Agar disk plate assay; assay type: functional
Streptococcus = assay: Minimum inhibitory concentration against Streptococcus sp. Group D (2 strains); assay type: functional
Proteus vulgaris = assay: Inhibitory activity against Proteus vulgaris X45 at 10 mg/mL concentration using Agar disk plate assay; assay type: functional
Klebsiella pneumoniae [17] = assay: Minimum inhibitory concentration against Klebsiella pneumoniae X26; assay type: functional
Klebsiella aerogenes [18] = assay: Minimum inhibitory concentration against Enterobacter aerogenes C32; assay type: functional
Streptococcus pyogenes = assay: Minimum inhibitory concentration against Streptococcus pyogenes C203; assay type: functional
Escherichia coli [19] = assay: Inhibitory activity against Escherichia coli X580 at 10 mg/mL concentration using Agar disk plate assay; assay type: functional
Salmonella typhi [20] = assay: Minimum inhibitory concentration against Salmonella typhi X514; assay type: functional, Salmonella enterica subsp. enterica serovar Typhi; settings: Salmonella enterica
Haemophilus influenzae [21] = assay: Minimum inhibitory concentration against Haemophilus influenza 76; assay type: functional
Haemophilus influenzae [22] = assay: Minimum inhibitory concentration against Haemophilus influenza C.L; assay type: functional
Klebsiella pneumoniae [23] = assay: Minimum inhibitory concentration against Klebsiella pneumoniae KAE; assay type: functional
Pseudomonas aeruginosa [24] = assay: Minimum inhibitory concentration against Pseudomonas aeruginosa (4 strains); assay type: functional
Micrococcus luteus = assay: Inhibitory activity against Sarcina lutea X186 at 10 mg/mL concentration using Agar disk plate assay; assay type: functional
Staphylococcus aureus [25] = assay: Minimum inhibitory concentration against Staphylococcus aureus (4 strains); assay type: functional
Escherichia coli [26] = assay: Minimum inhibitory concentration against Escherichia coli N10; assay type: functional
Morganella morganii = assay: Minimum inhibitory concentration against Proteus morganii PR15; assay type: functional
Providencia rettgeri = assay: Minimum inhibitory concentration against Proteus rettgeri C24; assay type: functional
Salmonella typhi [27] = assay: Minimum inhibitory concentration against Salmonella typhi 1335; assay type: functional, Salmonella enterica subsp. enterica serovar Typhi; settings: Salmonella enterica
Streptococcus pneumoniae = assay: Minimum inhibitory concentration against Streptococcus pneumoniae Park I; assay type: functional
[28] = tested on: Staphylococcus epidermidis; assay: Minimum inhibitory concentration against Staphylococcus epidermidis (2 strains); assay type: functional
[29] = tested on: Salmonella enterica subsp. enterica serovar Gallinarum; assay: Inhibitory activity against Salmonella gallinarum X142 at 10 mg/mL concentration using Agar disk plate assay; assay type: functional
Enterobacter cloacae [30] = assay: Minimum inhibitory concentration against Enterobacter cloacae EB5; assay type: functional

`CO/N=C(\C(=O)N[C@@H]1C(=O)N(OCC(=O)[O-])[C@H]1C)c1csc(N)n1.[K+]` gave a Zone of inhibition (Bacillus subtilis [1]) of 13 mm, an MIC (Proteus inconstans) of 0.125 µg/mL and an MIC [2] of over 64 µg/mL. The Zone of inhibition (Serratia marcescens [3]) was 33 mm, the Zone of inhibition (Escherichia coli [4]) was 44 mm and the Zone of inhibition (Bacillus subtilis [5]) was 19 mm. It also gave a Zone of inhibition (Staphylococcus aureus [6]) of 19 mm, an MIC (Escherichia coli [7]) of 0.5 µg/mL and an MIC (Klebsiella pneumoniae [8]) of 0.25 µg/mL. For the same molecule, the MIC (Klebsiella aerogenes [9]) was 0.25 µg/mL, the MIC (Citrobacter freundii) was 2 µg/mL and the MIC (Serratia marcescens [10]) was 0.5 µg/mL. For the same molecule, the Zone of inhibition (Escherichia coli [11]) was 35 mm, the MIC (Escherichia coli [12]) was 0.25 µg/mL and the MIC (Enterobacter cloacae [13]) was over 64 µg/mL. For the same molecule, the MIC (Serratia marcescens [14]) was 1 µg/mL, the Zone of inhibition (Pseudomonas aeruginosa [15]) was 15 mm and the Zone of inhibition [16] was 24 mm. The Zone of inhibition (Ralstonia solanacearum) was 20 mm, the MIC (Streptococcus) was over 64 µg/mL and the Zone of inhibition (Proteus vulgaris) was 36 mm. The MIC (Klebsiella pneumoniae [17]) was 0.25 µg/mL, the MIC (Klebsiella aerogenes [18]) was 0.25 µg/mL and the MIC (Streptococcus pyogenes) was 16 µg/mL. It also gave a Zone of inhibition (Escherichia coli [19]) of 56 mm, an MIC (Salmonella typhi [20]) of 0.125 µg/mL and an MIC (Haemophilus influenzae [21]) of 1 µg/mL. The MIC (Haemophilus influenzae [22]) was 1 µg/mL, the MIC (Klebsiella pneumoniae [23]) was 32 µg/mL and the MIC (Pseudomonas aeruginosa [24]) was over 64 µg/mL. It also gave a Zone of inhibition (Micrococcus luteus) of 22 mm, an MIC (Staphylococcus aureus [25]) of over 64 µg/mL and an MIC (Escherichia coli [26]) of 0.25 µg/mL. For the same molecule, the MIC (Morganella morganii) was 2 µg/mL, the MIC (Providencia rettgeri) was 0.125 µg/mL and the MIC (Salmonella typhi [27]) was 0.25 µg/mL. For the same molecule, the MIC (Streptococcus pneumoniae) was 32 µg/mL, the MIC [28] was over 64 µg/mL and the Zone of inhibition [29] was 30 mm. It also gave an MIC (Enterobacter cloacae [30]) of 1 µg/mL.
`C[C@H]1[C@H](NC(=O)Cc2csc(N)n2)C(=O)N1OCC(=O)[O-].[K+]` was tested, and the Zone of inhibition (Bacillus subtilis [1]) was 12 mm, the Zone of inhibition (Serratia marcescens [3]) was 23 mm and the Zone of inhibition (Escherichia coli [4]) was 25 mm. The Zone of inhibition (Bacillus subtilis [5]) was 21 mm, the Zone of inhibition (Staphylococcus aureus [6]) was 18 mm and the Zone of inhibition (Escherichia coli [11]) was 24 mm. For the same molecule, the Zone of inhibition (Proteus vulgaris) was 19 mm, the Zone of inhibition (Escherichia coli [19]) was 36 mm and the Zone of inhibition (Micrococcus luteus) was 15 mm. For the same molecule, the Zone of inhibition [29] was 22 mm.
`O=C(O)CON1C[C@H](NC(=O)Cc2ccccc2)C1=O` gave a Zone of inhibition (Bacillus subtilis [1]) of 16 mm, a Zone of inhibition (Bacillus subtilis [5]) of 20 mm and a Zone of inhibition (Staphylococcus aureus [6]) of 23 mm. For the same molecule, the Zone of inhibition (Proteus vulgaris) was 10 mm, the Zone of inhibition (Escherichia coli [19]) was 11 mm and the Zone of inhibition (Micrococcus luteus) was 23 mm.
`C[C@H]1[C@H](NC(=O)Cc2ccccc2)C(=O)N1OCC(=O)O` was tested, and the Zone of inhibition (Bacillus subtilis [1]) was 11 mm, the Zone of inhibition (Bacillus subtilis [5]) was 18 mm and the Zone of inhibition (Staphylococcus aureus [6]) was 13 mm. The Zone of inhibition (Proteus vulgaris) was 10 mm, the Zone of inhibition (Escherichia coli [19]) was 26 mm and the Zone of inhibition (Micrococcus luteus) was 23 mm.
